From ChEMBL document CHEMBL1135523, “(4R,5S)/(4S,5R)-4,5-Bis(4-hydroxyphenyl)-2-imidazolines: ligands for the estrogen receptor with a novel binding mode” (J Med Chem, 2002) come the findings set out here.

For assay [1], the target named is Estrogen receptor (Bos taurus) (UniProt Q9XSB5+P49884). The experiment in a line: Displacement of 17-beta-[3H]-estradiol from Estrogen receptor of calf uterine cytosol at 20 uM. It is filed as protein assay.
For a further assay, the target named is T1, Estrogen receptor (Homo sapiens, UniProt P03372).
T1 sequence (P03372 whole entry): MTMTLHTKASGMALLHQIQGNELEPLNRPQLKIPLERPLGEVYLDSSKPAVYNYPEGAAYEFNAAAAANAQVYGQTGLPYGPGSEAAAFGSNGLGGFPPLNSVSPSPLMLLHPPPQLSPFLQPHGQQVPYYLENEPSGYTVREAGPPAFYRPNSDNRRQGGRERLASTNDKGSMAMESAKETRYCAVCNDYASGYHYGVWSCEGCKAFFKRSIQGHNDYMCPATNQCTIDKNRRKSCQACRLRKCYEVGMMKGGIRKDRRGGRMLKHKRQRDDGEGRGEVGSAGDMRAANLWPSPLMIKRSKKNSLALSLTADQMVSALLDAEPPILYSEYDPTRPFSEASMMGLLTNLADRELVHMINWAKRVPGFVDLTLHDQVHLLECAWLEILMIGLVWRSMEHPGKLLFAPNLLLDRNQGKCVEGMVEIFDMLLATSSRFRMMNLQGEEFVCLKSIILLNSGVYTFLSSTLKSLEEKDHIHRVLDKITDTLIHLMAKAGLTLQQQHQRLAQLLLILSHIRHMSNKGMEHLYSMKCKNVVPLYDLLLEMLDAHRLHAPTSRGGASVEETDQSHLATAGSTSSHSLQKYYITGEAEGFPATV
The experiment in a line: Agonist activity in transcriptional activation assay in MCF-7-2a cells compared to estradiol E2. It is filed as functional, cell-based.

The structures appear in SMILES notation.

Usually EC50 stands for the concentration needed to bring the measured effect to its halfway point. Low readings indicate greater potency, high ones weaker potency.

In the case of `Oc1ccc([C@H]2N=CN[C@H]2c2ccc(O)cc2I)c(I)c1`, the Control in assay [1] worked out at 42.9%. Further, a half-maximal effect on Estrogen receptor (EC50) was put at 1.8 µM.
Compound `Cc1cc(O)ccc1[C@H]1N=CN[C@H]1c1ccc(O)cc1C` yielded a Control in assay [1] of 0%.
Compound `Oc1ccc([C@H]2N=CN[C@H]2c2ccc(O)cc2F)c(F)c1` displayed a Control in assay [1] of 20.9%.
In assay [1], `Oc1ccc([C@@H]2N=CN[C@@H]2c2c(Cl)cc(O)cc2Cl)c(Cl)c1` came in with a Control of 70.3%. On Estrogen receptor, this compound yielded an EC50 of 0.065 µM.
In assay [1], `Oc1ccc([C@@H]2N=CN[C@@H]2c2c(Cl)cc(O)cc2Cl)c(F)c1` came in with a Control of 40.1%. The same compound displayed a concentration for a half-maximal effect (EC50) at Estrogen receptor of 0.62 µM.
`Oc1ccc([C@H]2NC=N[C@H]2c2ccc(O)cc2Cl)c(Cl)c1` gave a Control in assay [1] of 44%. On Estrogen receptor, this compound showed an EC50 of 0.38 µM.
As to `Oc1ccc([C@H]2N=CN[C@H]2c2ccc(O)cc2)cc1`, in assay [1], the Control was 1.7%.
